# According to patent US10669235B2, “Indole derivatives and their use as protein kinase inhibitors” (RESPIVERT LIMITED, priority 2016, dated 2020):
# Where a name gives a salt, the structure may show the parent alone. Read-outs that look alike come from different tables or passages of the source.
# Assays:
# PAMPA permeability assay = format: in vitro ADME; conditions: for recovery at 5 hr, 10 μM / Papp at 5 hr, 10 μM: pH 7, PAMPA; for Papp at 5 hr, 10 μM: pH 7, 10 μM
# MRC5 cells = assay: Cell viability assay in MRC5 cells (MTT)
# PDGFRβ = PDGFRβ (Homo sapiens (Human), UniProt P09619); assay: PDGF-BB induced phosphorylation of PDGFRβ in fibroblasts (MRC5, HTRF); format: cell-based; conditions: MRC5 cells, PDGFBB stimulation; read-out: PDGFBB-induced PDGFRβ phosphorylation in MRC5 cells (IC50)
# Sequence of PDGFRβ (P09619 33-1106): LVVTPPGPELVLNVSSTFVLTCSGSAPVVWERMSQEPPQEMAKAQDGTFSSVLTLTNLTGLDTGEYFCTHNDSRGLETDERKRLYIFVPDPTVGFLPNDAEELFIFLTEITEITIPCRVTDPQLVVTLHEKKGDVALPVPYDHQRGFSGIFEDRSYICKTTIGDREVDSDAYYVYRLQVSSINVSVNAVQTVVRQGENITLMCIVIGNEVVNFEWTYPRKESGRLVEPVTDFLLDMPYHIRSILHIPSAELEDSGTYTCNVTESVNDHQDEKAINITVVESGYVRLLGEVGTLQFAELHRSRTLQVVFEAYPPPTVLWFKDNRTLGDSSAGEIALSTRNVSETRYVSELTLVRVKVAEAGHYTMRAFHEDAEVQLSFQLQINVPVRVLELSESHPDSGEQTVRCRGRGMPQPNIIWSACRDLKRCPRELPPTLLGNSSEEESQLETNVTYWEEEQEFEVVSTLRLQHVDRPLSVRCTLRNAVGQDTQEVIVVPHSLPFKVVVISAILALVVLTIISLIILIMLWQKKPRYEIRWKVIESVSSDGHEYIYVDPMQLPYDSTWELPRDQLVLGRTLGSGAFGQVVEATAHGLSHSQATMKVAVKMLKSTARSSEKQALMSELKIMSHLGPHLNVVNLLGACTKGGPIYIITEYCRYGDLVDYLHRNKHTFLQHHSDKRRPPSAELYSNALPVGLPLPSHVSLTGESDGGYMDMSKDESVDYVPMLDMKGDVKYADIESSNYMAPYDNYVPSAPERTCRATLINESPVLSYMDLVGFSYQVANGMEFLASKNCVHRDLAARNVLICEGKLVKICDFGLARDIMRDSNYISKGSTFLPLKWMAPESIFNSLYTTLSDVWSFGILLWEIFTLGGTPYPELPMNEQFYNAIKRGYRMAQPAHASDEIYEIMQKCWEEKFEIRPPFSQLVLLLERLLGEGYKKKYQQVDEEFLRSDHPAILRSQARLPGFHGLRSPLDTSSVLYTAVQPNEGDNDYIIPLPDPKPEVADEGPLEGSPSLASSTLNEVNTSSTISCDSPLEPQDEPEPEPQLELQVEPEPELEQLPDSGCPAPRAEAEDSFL
# [1] = Pharmacokinetic measurements in rats (i.v., i.t., oral); format: in vivo; conditions: rat; for concentration at 0.1 h: read-out: lung concentration (nM) at time 0.1 h; for concentration at 1.5 h: read-out: lung concentration (nM) at time 1.5 h; for concentration at 6 h: read-out: lung concentration (nM) at time 6 h; for concentration at 24 h: read-out: lung concentration (nM) at time 24 h
# [2] = i.t. dose 0.1 (nintedanib 0.42), 0.1 h
# [3] = i.t. dose 0.1 (nintedanib 0.42), 1.5 h
# [4] = i.t. dose 0.1 (nintedanib 0.42), 6 h
# [5] = i.t. dose 0.1 (nintedanib 0.42), 24 h
# [6] = i.v. dose 0.1 (nintedanib 0.42), 0.1 h
# [7] = i.v. dose 0.1 (nintedanib 0.42), 1.5 h
# [8] = i.v. dose 0.1 (nintedanib 0.42), 6 h
# [9] = i.v. dose 0.1 (nintedanib 0.42), 24 h
# [10] = male, CD, lung, other: intra-tracheal
smiles,measurement,setting,value
"COC(=O)c1cc2c(cc1C)/C(=C(/Nc1ccc(S(=O)(=O)NCCN3CCN(C)CC3)cc1)c1ccccc1)C(=O)N2 [Example 1, (Z)-Methyl 5-methyl-3-(((4-(N-(2-(4-methylpiperazin-1-yl)ethyl)sulfamoyl)phenyl)amino)(phenyl)methylene)-2-oxoindoline-6-carboxylate, 0.8 formate]","recovery at 5 hr, 10 μM",PAMPA permeability assay,92%
same,"Papp at 5 hr, 10 μM",PAMPA permeability assay,0.123 ×10⁻⁶ cm/s
same,Cell viability at 100 nM (%),MRC5 cells,103.6%
same,Cell viability at 300 nM (%),MRC5 cells,89%
same,Cell viability at 1000 nM (%),MRC5 cells,68.7%
same,IC50,PDGFRβ,25.6 nM
"COC(=O)c1cc2c(cc1C)/C(=C(/Nc1ccc(C(=O)NCCN3CCCN(C)CC3)cc1)c1ccccc1)C(=O)N2 [Example 5, (Z)-Methyl 5-methyl-3-(((4-((2-(4-methyl-1,4-diazepan-1-yl)ethyl)carbamoyl)phenyl)amino) (phenyl)methylene)-2-oxoindoline-6-carboxylate, formate]","recovery at 5 hr, 10 μM",PAMPA permeability assay,58.7%
same,"Papp at 5 hr, 10 μM",PAMPA permeability assay,0.00254 ×10⁻⁶ cm/s
same,Lung conc i.t./i.v. Ratio at time 0.1 h,[1]; 0.1 h,7
same,Lung conc i.t./i.v. Ratio at time 1.5 h,[1]; 1.5 h,12
same,Lung conc i.t./i.v. Ratio at time 6 h,[1]; 6 h,2
same,Lung conc i.t./i.v. Ratio at time 24 h,[1]; 24 h,7
same,BAL % administered dose at time 0.1 h,[1]; [2],13.6%
same,lung/plasma conc ratio at time 0.1 h,[1]; [2],371
same,concentration at 0.1 h,[1]; [2],5506 nM
same,BAL % administered dose at time 1.5 h,[1]; [3],0.9%
same,lung/plasma conc ratio at time 1.5 h,[1]; [3],>2285
same,concentration at 1.5 h,[1]; [3],4022 nM
same,BAL % administered dose at time 6 h,[1]; [4],0.2%
same,lung/plasma conc ratio at time 6 h,[1]; [4],>606
same,concentration at 6 h,[1]; [4],1067 nM
same,BAL % administered dose at time 24 h,[1]; [5],0.2%
same,lung/plasma conc ratio at time 24 h,[1]; [5],>951
same,concentration at 24 h,[1]; [5],1674 nM
same,BAL % administered dose at time 0.1 h,[1]; [6],BQL
same,lung/plasma ratio at time 0.1 h,[1]; [6],127
same,concentration at 0.1 h,[1]; [6],765 nM
same,BAL % administered dose at time 1.5 h,[1]; [7],BQL
same,lung/plasma ratio at time 1.5 h,[1]; [7],>188
same,concentration at 1.5 h,[1]; [7],330 nM
same,BAL % administered dose at time 6 h,[1]; [8],BQL
same,lung/plasma ratio at time 6 h,[1]; [8],>284
same,concentration at 6 h,[1]; [8],499 nM
same,BAL % administered dose at time 24 h,[1]; [9],BQL
same,lung/plasma ratio at time 24 h,[1]; [9],>140
same,concentration at 24 h,[1]; [9],247 nM
same,Cell viability at 100 nM (%),MRC5 cells,91.5%
same,Cell viability at 300 nM (%),MRC5 cells,81%
same,Cell viability at 1000 nM (%),MRC5 cells,84.8%
same,IC50,PDGFRβ,15 nM
"COC(=O)c1cc2c(cc1C)/C(=C(/Nc1ccc(C(=O)NCC(=O)N3CCN(C)CC3)cc1)c1ccccc1)C(=O)N2 [Example 8, (Z)-Methyl 5-methyl-3-(((4-((2-(4-methylpiperazin-1-yl)-2-oxoethyl)carbamoyl)phenyl)amino) (phenyl)methylene)-2-oxoindoline-6-carboxylate, 0.5 formate]","recovery at 5 hr, 10 μM",PAMPA permeability assay,87.8%
same,"Papp at 5 hr, 10 μM",PAMPA permeability assay,0.156 ×10⁻⁶ cm/s
same,Cell viability at 100 nM (%),MRC5 cells,110.4%
same,Cell viability at 300 nM (%),MRC5 cells,108.2%
same,Cell viability at 1000 nM (%),MRC5 cells,77.7%
same,IC50,PDGFRβ,12 nM
"COC(=O)c1cc2c(cc1C)/C(=C(/Nc1ccc(C(=O)NCCN3CCC(O)CC3)cc1)c1ccccc1)C(=O)N2 [Example 12, (Z)-Methyl 3-(((4-((2-(4-hydroxypiperidin-1-yl)ethyl)carbamoyl)phenyl)amino)(phenyl)methylene)-5-methyl-2-oxoindoline-6-carboxylate, 0.8 formate]","recovery at 5 hr, 10 μM",PAMPA permeability assay,87.7%
same,"Papp at 5 hr, 10 μM",PAMPA permeability assay,0.00638 ×10⁻⁶ cm/s
same,Cell viability at 100 nM (%),MRC5 cells,92.2%
same,Cell viability at 300 nM (%),MRC5 cells,105.5%
same,Cell viability at 1000 nM (%),MRC5 cells,93.4%
same,IC50,PDGFRβ,4.23 nM
"COC(=O)c1cc2c(cc1C)/C(=C(/Nc1ccc(C(=O)NCC3CCN(CCO)CC3)cc1)c1ccccc1)C(=O)N2 [Example 14, (Z)-Methyl 3-(((4-(((1-(2-hydroxyethyl)piperidin-4-yl)methyl)carbamoyl)phenyl)amino) (phenyl)methylene)-5-methyl-2-oxoindoline-6-carboxylate]",Cell viability at 100 nM (%),MRC5 cells,116.2%
same,Cell viability at 300 nM (%),MRC5 cells,107.9%
same,Cell viability at 1000 nM (%),MRC5 cells,61%
"COC(=O)c1cc2c(cc1C)/C(=C(/Nc1ccc(C(=O)N3CCN(CC(=O)NCCO)CC3)cc1)c1ccccc1)C(=O)N2 [Example 15, (Z)-Methyl 3-(((4-(4-(2-((2-hydroxyethyl)amino)-2-oxoethyl)piperazine-1-carbonyl)phenyl)amino) (phenyl)methylene)-5-methyl-2-oxoindoline-6-carboxylate]",Cell viability at 100 nM (%),MRC5 cells,91.3%
same,Cell viability at 300 nM (%),MRC5 cells,109.9%
same,Cell viability at 1000 nM (%),MRC5 cells,85.6%
"COC(=O)c1cc2c(cc1C)/C(=C(/Nc1ccc(C(=O)NC3CCN(CCO)CC3)cc1)c1ccccc1)C(=O)N2 [Example 49, (Z)-Methyl 3-(((4-((1-(2-hydroxyethyl)piperidin-4-yl)carbamoyl)phenyl)amino)(phenyl)methylene)-5-methyl-2-oxoindoline-6-carboxylate]",IC50,PDGFRβ,1.25 nM
"COC(=O)c1cc2c(cc1C)/C(=C(/Nc1ccc(C(=O)NCC3CCN(CCO)CC3)cc1)c1ccccc1)C(=O)N2 [Example 50, (Z)-Methyl 3-(((4-(((1-(2-hydroxyethyl)piperidin-4-yl)methyl)carbamoyl)phenyl)amino)(phenyl)methylene)-5-methyl-2-oxoindoline-6-carboxylate]",Cell viability at 100 nM (%),MRC5 cells,116.2%
same,Cell viability at 300 nM (%),MRC5 cells,107.9%
same,Cell viability at 1000 nM (%),MRC5 cells,61.0%
"COC(=O)c1cc2c(cc1C)/C(=C(/Nc1ccc(C(=O)NCCN(C)CCO)cc1)c1ccccc1)C(=O)N2 [Example 51, (Z)-Methyl 3-(((4-((2-((2-hydroxyethyl)(methyl)amino)ethyl)carbamoyl)phenyl)amino)(phenyl)methylene)-5-methyl-2-oxoindoline-6-carboxylate]",Cell viability at 100 nM (%),MRC5 cells,113%
same,Cell viability at 300 nM (%),MRC5 cells,95.5%
same,Cell viability at 1000 nM (%),MRC5 cells,83.8%
same,IC50,PDGFRβ,6.71 nM
"COC(=O)c1cc2c(cc1C)/C(=C(/Nc1ccc(C(=O)NCCN3CCS(=O)(=O)CC3)cc1)c1ccccc1)C(=O)N2 [Example 52, (Z)-Methyl 3-(((4-((2-(1,1-dioxidothiomorpholino)ethyl)carbamoyl)phenyl)amino)(phenyl)methylene)-5-methyl-2-oxoindoline-6-carboxylate]",Cell viability at 100 nM (%),MRC5 cells,81.3%
same,Cell viability at 300 nM (%),MRC5 cells,81.2%
same,Cell viability at 1000 nM (%),MRC5 cells,85.9%
same,IC50,PDGFRβ,5.49 nM
"COC(=O)c1cc2c(cc1C)/C(=C(/Nc1ccc(C(=O)NCCN3CCNC(=O)CC3)cc1)c1ccccc1)C(=O)N2 [Example 53, (Z)-Methyl 5-methyl-2-oxo-3-(((4-((2-(5-oxo-1,4-diazepan-1-yl)ethyl)carbamoyl)phenyl)amino)(phenyl)methylene)indoline-6-carboxylate]",Cell viability at 100 nM (%),MRC5 cells,89.1%
same,Cell viability at 300 nM (%),MRC5 cells,92.9%
same,Cell viability at 1000 nM (%),MRC5 cells,95.3%
same,IC50,PDGFRβ,6.5 nM
"COC(=O)c1ccc2c(c1)NC(=O)/C2=C(\Nc1ccc(N(C)C(=O)CN2CCN(C)CC2)cc1)c1ccccc1 [Nintedanib, reference compound]",% Recovery,PAMPA permeability assay,64.0%
same,"recovery at 5 hr, 10 μM",PAMPA permeability assay,83.5%
same,concentration at 0.1 h,"[1]; male, CD, lung, iv",2300 nM
same,concentration at 1.5 h,"[1]; male, CD, lung, iv",1390 nM
same,concentration at 24 h,"[1]; male, CD, lung, iv",66 nM
same,concentration at 0.1 h,[1]; [10],12400 nM
same,concentration at 1.5 h,[1]; [10],7700 nM
same,concentration at 24 h,[1]; [10],152 nM
same,MRT,"[1]; male, CD, plasma, iv",3.8 h
same,clearance,"[1]; male, CD, plasma, iv",124 mL/min/kg
same,half-life,"[1]; male, CD, plasma, iv",3.9 h
same,Vd,"[1]; male, CD, plasma, iv, read-out: Vss",28 L/kg
same,i.t. BAV (%),[1]; i.t. dose 0.1 (nintedanib 0.42),43%
same,BAL % administered dose at time 0.1 h,[1]; [2],2%
same,BAL % administered dose at time 1.5 h,[1]; [3],1%
same,BAL % administered dose at time 24 h,[1]; [5],0.1%
same,BAL % administered dose at time 0.1 h,[1]; [6],0.06%
same,BAL % administered dose at time 1.5 h,[1]; [7],0.03%
same,BAL % administered dose at time 24 h,[1]; [9],BQL
same,Cell viability at 100 nM (%),MRC5 cells,104.6%
same,Cell viability at 300 nM (%),MRC5 cells,105.6%
same,Cell viability at 1000 nM (%),MRC5 cells,92.7%
